Patent publication US20250066468A1, “LIPOSOME ENCAPSULATED AFFINITY DRUG” (L.E.A.F. HOLDINGS GROUP LLC, priority 2014, published 2025)

Tests used:
[1] = system: phosphorylated p38 in SL0003 lung cancer cells; experiment: p38 phosphorylation (PhosFlow); assay type: cell-based; details: 30 minutes, pemetrexed at 10 μM and 50 μM
Experimental: A second measure of sample liposome entering the cell is intracellular activation pathways. Cells respond to ligands binding to their receptors by activating kinases, in this case p38. The activated kinases can be measured by flow cytometry. The cells are incubated with sample liposome for 30 minutes and then lysed with a mild detergent. The activated p38 kinase is detected with an antibody by flow cytometry. A shift under the red line gate indicates a higher level of phosphorylated p38 (See FIG. 18A and 18BG). Cancer cells may have a higher basal level of activated kinases.
In addition, for FIG. 17, measuring p38 phosphorylation (PhosFlow) SL0003, normal colon cells, and normal breast cells were seeded at 10,000 cells/well. Cells were treated with: Fresh Pemetrexed ([…]), LEAF-001 (Liposome 070715 MPF; 5traut/50 Mab, 15traut/50Mab, 45traut/50Mab) (13.33× dilution), anti-folate receptor alpha (MABFRA H/L 1.01 mg/ml) (13.33× dilution) to determine the effect of the antibody in sample liposome, or no treatment. The cells were gently mixed and quickly placed in incubator. At each time point (30 minutes-4 hours), the plates were removed from the incubator and immediately fixed with formaldehyde for a final concentration of 2%. The plates were incubated for 5 minutes at room temperature. 25 μl of media was removed. […] The cells were read on the flow cytometer (in FL2).

[2] = system: SL0003 (lung cancer) cells; experiment: Cell cycle by propidium iodide DNA staining, flow cytometry; assay type: cell-based; details: titrated concentrations, day 5
Experimental: SL0003 (lung cancer) cells were prepared as described in the Example describing MTS assays (Example 5).
For this assay, the cells were cultured for 4 or 5 days (shown is day 5.). More specifically, […] cells (lung adenocarcinoma) were seeded in 96 well plates and treated the next day with titrated concentrations of LEAF-001 or pemetrexed. At day 5, cells were lysed with FACS buffer, 0.2% triton X-100, 0.3% formaldehyde. The DNA was stained with Propidium Iodine for 30 minutes […] to evaluate cell cycle
The cells were washed and evaluated by flow cytometry (FL2). FIG. 22A depicts a schematic showing the cell cycle. By inhibiting the formation of precursor purine and pyrimidine nucleotides, pemetrexed prevents the formation of DNA and RNA, which are required for the growth and survival of both normal cells and cancer cells.

CD34+ stem cells = experiment: Neutrophil differentiation of CD34+ stem cells, flow cytometry; assay type: cell-based, human; details: pemetrexed 2-50 μM; day 2; n=4 donors
Experimental: Experiments were performed as follows: CD34+ stem cells were obtained from ATCC. CD34+ cells were thawed at 37° C. for 1 minute. While on ice, the cells were transferred to cold stem cell medium (“StemSpan SFEM”-Stem Cell Tech. cat. #9650), 10% heat […] fetal bovine serum (HI FBS.) Each vial contained approximated 5×10^5 cell/ml. The cells were placed in 96 well tissue culture plates 35,000 cell/well. The neutrophils GROWTH media contained 100 ng/ml of stem cell factor human (SCF-Sigma H8416, lot #MKB[…]), 20 ng/ml of granulocyte colony-stimulation factor, human (G-CSF-Sigma H5541, lot #SLB[…]), 10 ng/ml of IL3 recombinant human (Sigma SRP3090, lot #1008AFC13) in […] media as above. […] The cells shown in the circle on the plots are maturing neutrophils expressing Mac-1 and CD34.

[3] = neutral pH; cited from earlier work

Structure (SMILES): Nc1nc2[nH]cc(CCc3ccc(C(=O)N[C@@H](CCC(=O)O)C(=O)O)cc3)c2c(=O)[nH]1 [pemetrexed, Pemetrexed disodium heptahydrate]
- effect on p38 activation [1]: reduces p38 activation
- cell cycle effect (accumulation in S phase) [2]: induces cells to accumulate in S phase
- neutrophil differentiation (CD34+ stem cells): neutrophil differentiation is inhibited
- solubility [3]: 100 mg/mL
